Source: patent publication US20250026719A1, “NOVEL COMPOUNDS AS INHIBITORS OF PCSK9” (SHENGKE PHARMACEUTICALS (JIANGSU) LTD., priority 2021, published 2025)

Legend:
[1] = test system: PCSK9; assay: PCSK9 ELISA of HepG2 culture medium; format: cell-based; conditions: 24 hr
Procedure: (§1) HepG2 cells (ATCC, Cat.:HB-8065) were maintained in Growth medium—Eagle's Minimum Essential Medium (Corning, 10-010-CVR), 10% FBS (Gibco, 10099-141), Penicillin (100 units/mL), Streptomycin (100 μg/mL). HepG2 cells were incubated at 37° C., 5% CO2. HepG2 cells were plated in flat bottom 96-well plates (Corning, 3599) at 40,000 cells/well in 100 μL of growth media. After an overnight incubation, the culture media were changed to serum-free OptiMEM media(Gibco, 31985-062), 90 μL/well. Vehicle, PF-06446846 hydrochloride, berberine, or test compound was added to the culture media, 10 μL/well. After 24 hr medium was harvested, and 10 μL of the medium were used for the PCSK9 ELISA(R&D Systems, SPC900).

[2] = test system: PCSK9 mRNA; assay: RT-Q-PCR analysis of PCSK9 mRNA in HepG2 cells; format: cell-based; conditions: Homo sapiens, 24 h, normalized to GAPDH, read-out: HepG2 Q-PCR PCSK9 mRNA level decrease (10 μM)
Procedure: HepG2 cells (ATCC, Cat.:HB-8065) were maintained in Growth medium—Eagle's Minimum Essential Medium (Corning, 10-010-CVR), 10% FBS (Gibco, 10099-141), Penicillin (100 units/mL), Streptomycin (100 μg/mL). HepG2 cells were incubated at 37° C., 5% CO2.
Cells were cultured in growth medium as described above and treated with the vehicle, Berberine or test compound for 24 h. The RNA was extracted using the Total RNA mini Kit (Tiangen, Beijing, China) according to the manufacturer's instructions. Reverse transcription was carried out using the High-Capacity cDNA reverse transcription kit (Thermo Fisher Scientific). Quantitative real-time PCR was performed using a reaction mixture containing cDNA, specific primers [PCSK9, 5′-[…]-3′ (forward) and 5′-[…]-3′ (reverse); GAPDH, 5′-[…]-3′ (forward) and 5′-[…]-3′ (reverse)] and Maxima SYBR Green/ROX qPCR Master Mix(Thermo Fisher Scientific). PCR amplification was carried out in a Real-Time PCR System. The real-time PCR conditions were 37° C. 10 min; 95° C. 10 min; 95° C. 15 s, 60° C. 30 s, 72° C. 30 s, 40 cycle. The amount of mRNA was normalized to the GAPDH level in the same samples.

[3] = test system: HepG2 cells; assay: HepG2 cell viability assay (CellTiter-Glo, cellular ATP); format: cell-based; conditions: 24 hr, serum-free OptiMEM
Procedure: as §1, with “black clear” for “flat”, “3063)” for “3599)”, “media (Gibco,” for “media(Gibco,”, “cellular ATP levels” for “medium was harvested, and 10 μL of the medium”, “measured using CellTiter-Glo® 2.0 Assay (Promega, G9242).” for “used for the PCSK9 ELISA(R&D Systems, SPC900).”

[4] = Metabolic stability in rat liver microsomes; format: in vitro ADME; conditions: rat liver microsomes 0.5 mg/mL, 37° C., read-out: Metabolic stability T1/2 (minute) Rat
Procedure: (§2) Metabolic Stability of Test Compounds in Incubation with Human, and Rat Liver Microsomes Study Details: • Test concentration: 1 μM; • Reference compound: Ketanserin; • Test systems: human, and rat liver microsomes (from Corning or Xenotech) with final liver microsomal protein concentration of 0.5 mg/mL; • Incubation condition: 0, 5, 15, 30, and 45 min at 37° C.; • Sample size: Duplicates (n=2); • Bioanalytical method: LC-MS/MS;
(§3) [formula] [formula] [formula] • where QH is the hepatic blood flow (mL/min/kg), fub is the fraction of unbound drug in plasma which is assumed to be 1, Clint is the in vitro intrinsic clearance.

[5] = Metabolic stability in human liver microsomes; format: in vitro ADME; conditions: human liver microsomes 0.5 mg/mL, 37° C., read-out: Metabolic stability T1/2 (minute) Human
Procedure: as §2, §3

COc1ccc2cc3[n+](cc2c1OC)CCc1cc2c(cc1-3)OCO2 [Berberine, reference compound]
HepG2 PCSK9 ELISA (10 μM) % inhibition [1]: 52%
inhibition at 10 µM [2]: 35%

CC(C)NC(=O)CN(CC(=O)Nc1ccc(Oc2ccc(C(F)(F)F)cc2)cc1)C(=O)c1cc2cccc(F)c2[nH]1 [Compound 201-275]
HepG2 Survival assay (10 μM) [3]: 92%
half-life at 1 μM [4]: 341 min
HepG2 PCSK9 ELISA (10 μM) % inhibition [1]: 80%
inhibition at 10 µM [2]: 75%
half-life at 1 μM [5]: 57.2 min

CCc1ccc(Oc2ccc(NC(=O)CN(CC(=O)NC(C)C)C(=O)c3cc4cccc(F)c4[nH]3)cc2)cc1 [Compound 201-276]
HepG2 Survival assay (10 μM) [3]: 99%
half-life at 1 μM [4]: 42.4 min
HepG2 PCSK9 ELISA (10 μM) % inhibition [1]: 94%
inhibition at 10 µM [2]: 54%
half-life at 1 μM [5]: 46.7 min

CC(C)NC(=O)CN(CC(=O)Nc1ccc(Oc2ccc(F)c(F)c2)cc1)C(=O)c1cc2cccc(F)c2[nH]1 [Compound 201-277]
HepG2 Survival assay (10 μM) [3]: 90%
half-life at 1 μM [4]: 45.4 min
HepG2 PCSK9 ELISA (10 μM) % inhibition [1]: 100%
inhibition at 10 µM [2]: 86%
half-life at 1 μM [5]: 40.2 min

CC(C)NC(=O)CN(CC(=O)Nc1ccc(Oc2ccc(C(F)(F)F)cc2)cc1)C(=O)c1ccc(C(F)(F)F)[nH]1 [Compound 201-281]
HepG2 Survival assay (10 μM) [3]: 98%
half-life at 1 μM [4]: 428 min
HepG2 PCSK9 ELISA (10 μM) % inhibition [1]: 100%
inhibition at 10 µM [2]: 70%
half-life at 1 μM [5]: 159 min

CC(C)NC(=O)CN(CC(=O)Nc1ccc(Oc2ccc(F)c(F)c2)cc1)C(=O)c1ccc(C(F)(F)F)[nH]1 [Compound 201-283]
HepG2 Survival assay (10 μM) [3]: 97%
half-life at 1 μM [4]: 49.6 min
HepG2 PCSK9 ELISA (10 μM) % inhibition [1]: 100%
inhibition at 10 µM [2]: 77%
half-life at 1 μM [5]: 77.8 min

CC(C)NC(=O)CN(CC(=O)Nc1ccc(Oc2ccc(C(F)(F)F)cc2)cc1)C(=O)c1cc2cccc(C#N)c2[nH]1 [Compound 201-284]
HepG2 Survival assay (10 μM) [3]: 101%
half-life at 1 μM [4]: 66 min
HepG2 PCSK9 ELISA (10 μM) % inhibition [1]: 94%
inhibition at 10 µM [2]: 90%
half-life at 1 μM [5]: 64 min

O=C(CN(CC(=O)NC1CC1)C(=O)c1cc2cccc(F)c2[nH]1)Nc1ccc(Oc2ccc(C(F)(F)F)cc2)cc1 [Compound 201-287]
HepG2 Survival assay (10 μM) [3]: 96%
half-life at 1 μM [4]: 138 min
HepG2 PCSK9 ELISA (10 μM) % inhibition [1]: 99%
inhibition at 10 µM [2]: 56%
half-life at 1 μM [5]: 100 min

O=C(CN(CC(=O)NC1CC1)C(=O)c1ccc(C(F)(F)F)[nH]1)Nc1ccc(Oc2ccc(C(F)(F)F)cc2)cc1 [Compound 201-293]
HepG2 Survival assay (10 μM) [3]: 99%
half-life at 1 μM [4]: 417 min
HepG2 PCSK9 ELISA (10 μM) % inhibition [1]: 100%
inhibition at 10 µM [2]: 50%
half-life at 1 μM [5]: 98.7 min

CC(C)NC(=O)CN(CC(=O)Nc1ccc(Oc2ccc(C(C)C)cc2)cc1)C(=O)c1cc2cccc(F)c2[nH]1 [Compound 201-311]
HepG2 Survival assay (10 μM) [3]: 105.9%
HepG2 PCSK9 ELISA (10 μM) % inhibition [1]: 85%

CC(C)c1ccc(Oc2ccc(NC(=O)CN(CC(=O)NC3CC3)C(=O)c3cc4cccc(F)c4[nH]3)cc2)cc1 [Compound 201-312]
HepG2 Survival assay (10 μM) [3]: 102.7%
half-life at 1 μM [4]: 29.6 min
HepG2 PCSK9 ELISA (10 μM) % inhibition [1]: 89%
inhibition at 10 µM [2]: 50%
half-life at 1 μM [5]: 52.8 min

COc1ccc(Oc2ccc(NC(=O)CN(CC(=O)NC(C)C)C(=O)c3cc4cccc(F)c4[nH]3)cc2)cc1 [Compound 201-313]
HepG2 Survival assay (10 μM) [3]: 89.4%
HepG2 PCSK9 ELISA (10 μM) % inhibition [1]: 98%

COc1ccc(Oc2ccc(NC(=O)CN(CC(=O)NC3CC3)C(=O)c3cc4cccc(F)c4[nH]3)cc2)cc1 [Compound 201-314]
HepG2 Survival assay (10 μM) [3]: 103.7%
HepG2 PCSK9 ELISA (10 μM) % inhibition [1]: 97%

CC(C)NC(=O)CN(CC(=O)Nc1ccc(Oc2ccc(C(C)C)cc2)cc1)C(=O)c1ccc(C(F)(F)F)o1 [Compound 201-315]
HepG2 Survival assay (10 μM) [3]: 102%
HepG2 PCSK9 ELISA (10 μM) % inhibition [1]: 89%

CC(C)c1ccc(Oc2ccc(NC(=O)CN(CC(=O)NC3CC3)C(=O)c3ccc(C(F)(F)F)o3)cc2)cc1 [Compound 201-316]
HepG2 Survival assay (10 μM) [3]: 108.4%
HepG2 PCSK9 ELISA (10 μM) % inhibition [1]: 89%

COc1ccc(Oc2ccc(NC(=O)CN(CC(=O)NC(C)C)C(=O)c3ccc(C(F)(F)F)o3)cc2)cc1 [Compound 201-317]
HepG2 Survival assay (10 μM) [3]: 100.8%

COc1ccc(Oc2ccc(NC(=O)CN(CC(=O)NC3CC3)C(=O)c3ccc(C(F)(F)F)o3)cc2)cc1 [Compound 201-318]
HepG2 Survival assay (10 μM) [3]: 101.6%

CC(C)NC(=O)CN(CC(=O)Nc1ccc(Oc2ccc(C(C)C)cc2)cc1)C(=O)c1ccc(C(F)(F)F)[nH]1 [Compound 201-319]
HepG2 Survival assay (10 μM) [3]: 76.1%
HepG2 PCSK9 ELISA (10 μM) % inhibition [1]: 96%
inhibition at 10 µM [2]: 60%

CC(C)c1ccc(Oc2ccc(NC(=O)CN(CC(=O)NC3CC3)C(=O)c3ccc(C(F)(F)F)[nH]3)cc2)cc1 [Compound 201-320]
HepG2 Survival assay (10 μM) [3]: 87.3%
half-life at 1 μM [4]: 20.8 min
HepG2 PCSK9 ELISA (10 μM) % inhibition [1]: 93%
inhibition at 10 µM [2]: 80%
half-life at 1 μM [5]: 93 min

COc1ccc(Oc2ccc(NC(=O)CN(CC(=O)NC3CC3)C(=O)c3ccc(C(F)(F)F)[nH]3)cc2)cc1 [Compound 201-322]
HepG2 Survival assay (10 μM) [3]: 89.6%

CC(C)NC(=O)CN(CC(=O)Nc1ccc(Oc2ccc(C(C)C)cc2)cc1)C(=O)c1cc2cccc(C#N)c2[nH]1 [Compound 201-323]
HepG2 Survival assay (10 μM) [3]: 105.6%
HepG2 PCSK9 ELISA (10 μM) % inhibition [1]: 79%

CC(C)c1ccc(Oc2ccc(NC(=O)CN(CC(=O)NC3CC3)C(=O)c3cc4cccc(C#N)c4[nH]3)cc2)cc1 [Compound 201-324]
HepG2 Survival assay (10 μM) [3]: 101.5%
HepG2 PCSK9 ELISA (10 μM) % inhibition [1]: 72%

COc1ccc(Oc2ccc(NC(=O)CN(CC(=O)NC3CC3)C(=O)c3cc4cccc(C#N)c4[nH]3)cc2)cc1 [Compound 201-326]
HepG2 Survival assay (10 μM) [3]: 112.5%
HepG2 PCSK9 ELISA (10 μM) % inhibition [1]: 83%

CC(C)NC(=O)CN(CC(=O)Nc1ccc(Oc2ccc(C(F)F)cc2)cc1)C(=O)c1cc2cccc(F)c2[nH]1 [Compound 201-327]
HepG2 Survival assay (10 μM) [3]: 98%
half-life at 1 μM [4]: 35.4 min
HepG2 PCSK9 ELISA (10 μM) % inhibition [1]: 90%
inhibition at 10 µM [2]: 88%
half-life at 1 μM [5]: 14.4 min
